According to patent publication US20050158805A1, “Toxicity test” (priority 2002, published 2005):
Values belong to the molecule of their own block, whether it stands above or below them.

Key:
liver spheroids = test: Spheroid cell spreading inhibition test (SCSIT) using fresh liver spheroids; assay type: cell-based, male Wistar rats; settings: for SCSIT result (spheroid cell spreading inhibition): fresh liver spheroids, batches A-C; for concentrations at which liver spheroid cell spreading is inhibited: liver spheroids, read from tables
Description: (§1) The inventors have developed a cell spreading inhibition test based on the observed spheroid cell growth, or “spreading” of cells in spheroids when the spheroids are grown on a suitable surface and at static state i.e. without shaking. […] This inhibition of cell spreading provides an indicator of toxicity.
(§2) According to a first aspect of the invention, there is provided an in vitro toxicity assay comprising: • a) exposing a spheroid sample to a selected concentration of a compound to be assayed; • b) incubating the spheroid sample for a suitable period of time; and • c) observing if spheroid cell spreading inhibition takes place. […] However, if there is observable cell spreading from one or more of the spheroids in the sample, this is a cell spreading inhibition negative (−) result.
(§3) In the following examples, fresh liver or HepG2 spheroids were used.
Liver spheroids were prepared from the liver of male Wistar rats by a two-step collagenase perfusion method described by Seglen P.O. ((1976). Preparation of isolated rat liver cells. Methods Cell. Biol. 13, 29-38) and modified by Lazar, A.; Peshwa, M. V., Wu, F. J., Chi, C. M., Cerra, F. B., and Hu, W. S. (1995). Extended liver-specific functions of procine hepatocyte spheroids entrapped in collagen gel. In Vitro Cell Biol Anim. 31, 340-346). Viability of the isolated liver cells was determined by tyrpan blue dye exclusion i.e. an aliquot of isolated liver cells was mixed with an equal volume of trypan blue dye (1.0% w/v in isotonic saline) and incubated at room temperature for a minimum period of 5 minutes. Only isolated liver cell preparations with viability above 80% were used to prepare liver spheroids. The cell suspension was diluted with culture medium (hepatocyte medium supplemented with 5% FCS, […] L-glutamine, 2 ng/ml insulin, 100 U/ml penicillin and 100 μg/ml streptomycin sulfate) to give a cell density of 5×10^5 cells/ml. The diluted cell suspension was dispersed into 6-well plates, 3 ml/well. The plates were incubated at 37° C., in a 5% CO2 incubator on a gyrotatory shaker (New Brunswick) at an initial rotation speed of 85 rpm for the first 24 hr and 77 rpm thereafter. The plates were rotated at this speed for the duration of the study (up to 45 days, but typically 2-10 days). 1.5 ml of old medium was replaced with 2.0 ml fresh medium for each well every other day. Media exchange was carried out over the duration of the study (up to 45 days, but typically 2-10 days).
(§4) 3 to 5 freshly prepared spheroids were transferred into each well of a 24 well plate and exposed to galactosamine at various concentrations as detailed in Tables 1 and 2. Two wells were used for each concentration of galactosamine. The spheroids were incubated in Hepatocyte medium (Sigma) supplemented with 10-15% FCS, […] L-glutamine, 100 U/ml penicillin and 100 μg/ml streptomycim sulfate, and placed in a 5% CO2 incubator at 37° C. and the effects on spheroid cell spreading inhibition observed after 48 hours exposure of the cells to galactosamine: […]

HepG2 spheroids = test: Spheroid cell spreading inhibition test (SCSIT) using fresh HepG2 spheroids; assay type: cell-based, Human; settings: for SCSIT result (spheroid cell spreading inhibition): fresh HepG2 spheroids, batches A-C; for concentrations at which HepG2 spheroid cell spreading is inhibited: HepG2 spheroids, read from tables
Description: as §1, §2, §3
HepG2 cell line (Human Hepatocyte Carinomal cells, from ECACC) was cultured as a monolayer in a 75 cm^2 flask at an initial density of 10^2 cells/cm^2 in a culture medium containing MEM (Sigma) supplemented with 10% FBS, 200 nM L-Glutamine, 100 U/ml pencillin and 100 μg/ml streptomycin (GibcoBril). HepG2 cells of confluent flasks were detached by trypsin and pooled together to be counted by trypan blue dye excretion. The cell suspension was diluted with culture medium (MEM supplemented with 5% FBS, […] L-glutamine, 100 U/ml penicillin and 100 μg/ml streptomycin) to give 1×10^6 cell/ml cell suspension. The cell suspension was plated into 6-well plates, 3 ml/well. The plate was placed on a gyrotatory shaker (New Brunswick) at 83 rpm in a 37° C. CO2 incubator for the first 24 h, and then the rotation speed reduced to 77 rpm. After 6 DIV culture, spheroids were ready for use.
as §4

- SCSIT result (spheroid cell spreading inhibition) (liver spheroids; 0.1 μM): −
- SCSIT result (spheroid cell spreading inhibition) (liver spheroids; 1 μM): −
- SCSIT result (spheroid cell spreading inhibition) (liver spheroids; 10 μM): −
- SCSIT result (spheroid cell spreading inhibition) (liver spheroids; 100 μM): −
- SCSIT result (spheroid cell spreading inhibition) (liver spheroids; 1000 μM): +
- spheroid cell spreading inhibition (FIG. 4B) (liver spheroids; liver spheroid, 1000 μM, 48 hours after exposure): spheroid cell spreading was inhibited
- concentrations at which liver spheroid cell spreading is inhibited (liver spheroids): ≥ 1 mM
- SCSIT result (spheroid cell spreading inhibition) (HepG2 spheroids; 0.1 μM): −
- SCSIT result (spheroid cell spreading inhibition) (HepG2 spheroids; 1 μM): −
- SCSIT result (spheroid cell spreading inhibition) (HepG2 spheroids; 10 μM): −
- SCSIT result (spheroid cell spreading inhibition) (HepG2 spheroids; 100 μM): −
- SCSIT result (spheroid cell spreading inhibition) (HepG2 spheroids; 1000 μM): +
- concentrations at which HepG2 spheroid cell spreading is inhibited (HepG2 spheroids): ≥ 1 mM
Structure (SMILES): O=C(O)Cc1ccccc1Nc1c(Cl)cccc1Cl [diclofenac]
- spheroid cell spreading inhibition (FIG. 4A) (liver spheroids; liver spheroid, 100 μM, 48 hours after exposure): no spheroid cell spreading inhibition is observed

- SCSIT result (spheroid cell spreading inhibition) (liver spheroids; 4 mM, 48 hours exposure): −
- SCSIT result (spheroid cell spreading inhibition) (liver spheroids; 10 mM, 48 hours exposure): −
- SCSIT result (spheroid cell spreading inhibition) (liver spheroids; 16 mM, 48 hours exposure): −
- SCSIT result (spheroid cell spreading inhibition) (liver spheroids; 20 mM, 48 hours exposure): +
- SCSIT result (spheroid cell spreading inhibition) (liver spheroids; 40 mM, 48 hours exposure): +
- spheroid cell spreading inhibition (FIG. 2C) (liver spheroids; liver spheroid, 40 mM, 48 hours after exposure): spheroid cell spreading was inhibited
- concentrations at which liver spheroid cell spreading is inhibited (liver spheroids): ≥ 20 mM
- SCSIT result (spheroid cell spreading inhibition) (HepG2 spheroids; 4 mM, 48 hours exposure): −
- SCSIT result (spheroid cell spreading inhibition) (HepG2 spheroids; 10 mM, 48 hours exposure): −
- SCSIT result (spheroid cell spreading inhibition) (HepG2 spheroids; 16 mM, 48 hours exposure): +
- SCSIT result (spheroid cell spreading inhibition) (HepG2 spheroids; 20 mM, 48 hours exposure): +
- SCSIT result (spheroid cell spreading inhibition) (HepG2 spheroids; 40 mM, 48 hours exposure): +
- concentrations at which HepG2 spheroid cell spreading is inhibited (HepG2 spheroids): ≥ 16 mM
Structure (SMILES): N[C@H]1C(O)O[C@H](CO)[C@H](O)[C@@H]1O (stereo partly drawn) [galactosamine]
- spheroid cell spreading inhibition (FIG. 2B) (liver spheroids; liver spheroid, 16 mM, 48 hours after exposure): no spheroid cell spreading inhibition is observed

- SCSIT result (spheroid cell spreading inhibition) (liver spheroids; 5 μM): −
- SCSIT result (spheroid cell spreading inhibition) (liver spheroids; 50 μM): −
- SCSIT result (spheroid cell spreading inhibition) (liver spheroids; 500 μM): −
- SCSIT result (spheroid cell spreading inhibition) (liver spheroids; 5 mM): −
- SCSIT result (spheroid cell spreading inhibition) (liver spheroids; 50 mM): +
- spheroid cell spreading inhibition (FIG. 5B) (liver spheroids; liver spheroid, 50 mM, 48 hours after exposure): spheroid cell spreading was inhibited
- concentrations at which liver spheroid cell spreading is inhibited (liver spheroids): ≥ 50 mM
- SCSIT result (spheroid cell spreading inhibition) (HepG2 spheroids; 5 μM): −
- SCSIT result (spheroid cell spreading inhibition) (HepG2 spheroids; 50 μM): −
- SCSIT result (spheroid cell spreading inhibition) (HepG2 spheroids; 500 μM): −
- SCSIT result (spheroid cell spreading inhibition) (HepG2 spheroids; 5 mM): −
- SCSIT result (spheroid cell spreading inhibition) (HepG2 spheroids; 50 mM): +
- concentrations at which HepG2 spheroid cell spreading is inhibited (HepG2 spheroids): ≥ 50 mM
Structure (SMILES): CC(=O)Nc1ccc(O)cc1 [paracetamol]
- spheroid cell spreading inhibition (FIG. 5A) (liver spheroids; liver spheroid, 5 mM, 48 hours after exposure): no spheroid cell spreading inhibition is observed
